Laboratory results reported in patent publication US12422660B2, “Microscope for imaging samples within wells of multi-well plates hold by stage and beam homogenizer for homogenizing beam” (QUIVER HOLDINGS INC., priority 2020, dated 2025).
Entries after “also recorded” stand apart in the source; their conditions may differ.

Assays:
[1] = system: hiPSC-derived motor neurons; test: Optopatch intrinsic excitability and pharmacological response, before and after compound addition; format: cell-based, human; details: 1 μM, before vs after addition, blue light stimulus
Excerpt: Firefly image with overlay (colored regions) of hiPSC-derived motor neurons are identified by automated analysis.
Example voltage recordings from selected cells, and the blue stimulus used to evoke firing: steps, pulse trains, and ramps are shown. […]
FIG. 21 is a raster plot where each point is an identified action potential and each row is a neuron from a single FOV.
Analysis overview: FIGS. 19-26 show the automated analysis workflow for measurements of intrinsic excitability and pharmacological response in hiPSC-derived motor neurons. Neurons are interrogated with a stimulus protocol (blue) designed to probe a broad range of spiking behaviors. All pixels capturing fluorescence from one neuron co-vary in time following that cell's unique firing pattern (FIG. 20). The temporal covariance is used to generate a weight mask for each cell (colored regions in FIG. 19); masked pixels are averaged for each frame in the movie to calculate the voltage traces. Each FOV was recorded twice, before and after addition of potassium channel opener ML213. […] From the fluorescence-time traces, each action potential in the dataset is identified (FIG. 21), and firing rate (FIG. 22), spike shape parameters (FIG. 23) and relative timings (FIG. 24 & FIG. 25) are measured as a function of stimulus. […]

[2] = system: E18 rat hippocampal neurons; test: Optopatch pharmacology and high-throughput validation on 96-well Firefly; format: cell-based; details: for firing rate: 1 μM, 96-well plate, alternating columns vs vehicle; for drug-induced change in neuronal spiking behavior: neurons cultured 14 days, vehicle normalized to 1
Procedure: Concentration response curves are readily measured with the Optopatch platform (FIG. 31). All compounds show large effect sizes and good repeatability on two independent plates. Each symbol represents>100 cells in one well. All the data shown were measured in a single day.
The system is also approaching readiness for high-throughput drug screening. To test system uniformity and repeatability, ML-213 is added to alternating columns in a 96-well plate (FIG. 32-FIG. 37). The change in spike rate during the ramp is readily visible in each well and is uniform across the plate (FIG. 34-35). Using one parameter, number of spikes during the ramp, the Z′ of 0.31 indicates a failed call in 1 of 73,000 wells, sufficient for screening tens of thousands of compounds for phenotypic screens in neurons. There was a small drift in time as wells were read out serially at room temperature (FIG. 36). Recent improvements in automation control software have reduced the scan time per FOV from 30 seconds to 10 seconds, which will reduce scan time artifacts. Furthermore, the microscope will have a 5× increased imaging area, reducing the number of FOVs per well to 1 and further increasing screening speed.
FIGS. 30 & 31 show pharmacology e.g., with E18 rat hippocampal neurons cultured 14 days.
FIG. 30 is radar plots showing the drug-induced change in neuronal spiking behavior along many dimensions, tabulated at right. For each parameter, the vehicle is normalized to 1 (green); drug effects in orange.
FIG. 32-FIG. 37 show high-throughput validation for screening with E18 rat hippocampal neurons cultured for 14 days.
The blue light stimulus is shown below.

[3] = system: iPSC-derived excitatory cortical neurons (NGN2) with LOF mutation (knockout/KO); test: Optopatch multi-dimensional analysis of disease phenotype reversal and side effects; format: cell-based, human; details: for cell behavior projected onto phenotype/side effect space: KO cells, 8 concentrations from 0.28 to 600 μM, increasing concentration; for reversal of functional phenotype (WT vs KO), radar plot: KO neurons, 30 days in culture
Excerpt: In compound screening, multidimensional data may be reduced to a few parameters that can be used to rank and select compounds to advance. In disease modeling, for example, one uses hiPSC-derived neurons from patients and healthy controls, and screens for compounds that induce the disease cells to behave like healthy cells. The dimensionality reduction is described in FIG. 27-FIG. 29.
FIG. 27-FIG. 29 show multi-dimensional analysis with iPSC-derived excitatory cortical neurons (NGN2), 30 days in culture.
FIG. 27 is Radar plot showing a select subset of parameters normalized to values for wildtype (WT) neurons. […] The difference between WT and KO traces is the functional phenotype.
FIG. 28 is a diagram illustrating phenotype reversal and “side effects.” In the ˜300-dimensional space of recorded parameters, only two of which are shown, WT wells are clustered and KO wells are clustered. The vector between these populations represents the phenotype (red). Drug effects (blue) are deconstructed into components along (phenotype reversal) and orthogonal to (side effects) the phenotype vector. An ideal drug would undo the effects of the mutation and move the well from the KO cloud to the WT cloud.
FIG. 29 is a plot showing many wells projected onto the phenotype/side effect space. WT and KO wells are well separated along the phenotype direction. Application of the two compounds (8 concentrations from 0.28 to 600 μM) from FIG. 27 have increasing effects on KO cell behavior as the concentration increases. […] The connected drug points are in order of increasing concentration, and the two lines are experimental replicates on two consecutive weeks of experiment.

| Compound | neuronal excitability / firing [1] | firing rate [2] | firing rate ([2]; listed as ML-213) | drug-induced change in neuronal spiking behavior [2] | cell behavior projected onto phenotype/side effect space [3] | reversal of functional phenotype (WT vs KO), radar plot [3] |
| --- | --- | --- | --- | --- | --- | --- |
| Cc1cc(C)c(NC(=O)C2CC3CCC2C3)c(C)c1 (stereo not drawn) [ML213] | suppresses firing; also recorded: clear reduction in neuronal excitability | dramatically reduces firing rate in all wells tested | reduces firing | drive behavior in opposite directions |  |  |
| Nc1nnc(-c2cccc(Cl)c2Cl)c(N)n1 [lamotrigine] |  |  |  |  | moves behavior away from both WT and KO | perturbed behavior but did not reverse the phenotype |
| Nc1ccncc1 [4-AP] |  |  |  |  | moves cell behavior toward and beyond WT behavior | substantially reversed the phenotype |
| O=C1c2ccccc2C(Cc2ccncc2)(Cc2ccncc2)c2ccccc21 [XE-991] |  |  |  | drive behavior in opposite directions |  |  |
